PubChem BioAssay AID1259407 (Chemical Carcinogenesis Research Information System (CCRIS), 2018)
Calls of active or inactive are those of the source. The rule behind the calls is not given here.

System: CCRIS mutagenicity, Ames/micronucleus/aberration tests
Test: CCRIS mutagenicity studies
[1] = Test System: AMES SALMONELLA TYPHIMURIUM, Strain/Indicator: TA98, Metabolic Activation: NONE, Method: PREINCUBATION
[2] = Test System: AMES SALMONELLA TYPHIMURIUM, Strain/Indicator: TA100, Metabolic Activation: NONE, Method: PREINCUBATION
[3] = Test System: AMES SALMONELLA TYPHIMURIUM, Strain/Indicator: TA1537, Metabolic Activation: NONE, Method: PREINCUBATION

Measured: mutagenic call

CC1CCC(C(C)CS)CC1S (stereo not drawn)
inactive: Test System: AMES SALMONELLA TYPHIMURIUM, Strain/Indicator: TA98, Metabolic Activation: HAMSTER, LIVER, S-9, AROCLOR 1254, Method: PREINCUBATION inactive; negative | [1] inactive; negative | Test System: AMES SALMONELLA TYPHIMURIUM, Strain/Indicator: TA98, Metabolic Activation: RAT, LIVER, S-9, AROCLOR 1254, Method: PREINCUBATION inactive; negative | Test System: AMES SALMONELLA TYPHIMURIUM, Strain/Indicator: TA100, Metabolic Activation: HAMSTER, LIVER, S-9, AROCLOR 1254, Method: PREINCUBATION inactive; negative | [2] inactive; negative | Test System: AMES SALMONELLA TYPHIMURIUM, Strain/Indicator: TA100, Metabolic Activation: RAT, LIVER, S-9, AROCLOR 1254, Method: PREINCUBATION inactive; negative | Test System: AMES SALMONELLA TYPHIMURIUM, Strain/Indicator: TA1535, Metabolic Activation: HAMSTER, LIVER, S-9, AROCLOR 1254, Method: PREINCUBATION inactive; negative | Test System: AMES SALMONELLA TYPHIMURIUM, Strain/Indicator: TA1535, Metabolic Activation: NONE, Method: PREINCUBATION inactive; negative | Test System: AMES SALMONELLA TYPHIMURIUM, Strain/Indicator: TA1535, Metabolic Activation: RAT, LIVER, S-9, AROCLOR 1254, Method: PREINCUBATION inactive; negative | Test System: AMES SALMONELLA TYPHIMURIUM, Strain/Indicator: TA1537, Metabolic Activation: HAMSTER, LIVER, S-9, AROCLOR 1254, Method: PREINCUBATION inactive; negative | [3] inactive; negative | Test System: AMES SALMONELLA TYPHIMURIUM, Strain/Indicator: TA1537, Metabolic Activation: RAT, LIVER, S-9, AROCLOR 1254, Method: PREINCUBATION inactive; negative

C(=NC1CCCCC1)=NC1CCCCC1
inactive: End Point: In vivo micronucleus, Test System: Bone marrow polychromatic erythrocytes, Species: Rat, Strain/Sex: F344/N/Male, Route: Intraperitoneal inactive; negative | Test System: Ames Salmonella typhimurium, Strain/Indicator: TA97, Metabolic Activation: Hamster, liver S-9, Aroclor 1254, 10 and 30%, Method: Preincubation inactive; negative | Test System: Ames Salmonella typhimurium, Strain/Indicator: TA97, Metabolic Activation: None, Method: Preincubation inactive; negative | Test System: Ames Salmonella typhimurium, Strain/Indicator: TA97, Metabolic Activation: Rat, liver S-9, Aroclor 1254, 10 and 30%, Method: Preincubation inactive; negative | Test System: Ames Salmonella typhimurium, Strain/Indicator: TA98, Metabolic Activation: Hamster, liver S-9, Aroclor 1254, 10 and 30%, Method: Preincubation inactive; negative | Test System: Ames Salmonella typhimurium, Strain/Indicator: TA98, Metabolic Activation: None, Method: Preincubation inactive; negative | Test System: Ames Salmonella typhimurium, Strain/Indicator: TA98, Metabolic Activation: Rat, liver S-9, Aroclor 1254, 10 and 30%, Method: Preincubation inactive; negative | Test System: Ames Salmonella typhimurium, Strain/Indicator: TA100, Metabolic Activation: Hamster, liver S-9, Aroclor 1254, 10 and 30%, Method: Preincubation inactive; negative | Test System: Ames Salmonella typhimurium, Strain/Indicator: TA100, Metabolic Activation: None, Method: Preincubation inactive; negative | Test System: Ames Salmonella typhimurium, Strain/Indicator: TA100, Metabolic Activation: Rat, liver S-9, Aroclor 1254, 10 and 30%, Method: Preincubation inactive; negative | Test System: Ames Salmonella typhimurium, Strain/Indicator: TA1535, Metabolic Activation: Hamster, liver, S-9, Aroclor 1254, 10 and 30%, Method: Preincubation inactive; negative | Test System: Ames Salmonella typhimurium, Strain/Indicator: TA1535, Metabolic Activation: None, Method: Preincubation inactive; negative | Test System: Ames Salmonella typhimurium, Strain/Indicator: TA1535, Metabolic Activation: Rat, liver, S-9, Aroclor 1254, 10 and 30%, Method: Preincubation inactive; negative
active: End Point: In vivo micronucleus, Test System: Peripheral blood normochromatic erythrocytes, Species: Mouse, Strain/Sex: B6C3F1/ Female, Route: Dermal active; positive (significant increase in the frequency only at 3 mg/kg (p=0.003)) | End Point: In vivo micronucleus, Test System: Peripheral blood normochromatic erythrocytes, Species: Mouse, Strain/Sex: B6C3F1/ Male, Route: Dermal active; positive (results of trend test significant (p=0.003 but increase in frequency o

C[As+](C)(C)CC(=O)[O-]
inactive: Test System: AMES SALMONELLA TYPHIMURIUM, Strain/Indicator: TA97, Metabolic Activation: NONE inactive; negative | Test System: AMES SALMONELLA TYPHIMURIUM, Strain/Indicator: TA97, Metabolic Activation: RAT, GUT-FLORA EXTRACT inactive; negative | Test System: AMES SALMONELLA TYPHIMURIUM, Strain/Indicator: TA97, Metabolic Activation: RAT, LIVER, S-9, AROCLOR 1254 inactive; negative | Test System: AMES SALMONELLA TYPHIMURIUM, Strain/Indicator: TA98, Metabolic Activation: NONE inactive; negative | Test System: AMES SALMONELLA TYPHIMURIUM, Strain/Indicator: TA98, Metabolic Activation: RAT, GUT-FLORA EXTRACT inactive; negative | Test System: AMES SALMONELLA TYPHIMURIUM, Strain/Indicator: TA98, Metabolic Activation: RAT, LIVER, S-9, AROCLOR 1254 inactive; negative | Test System: AMES SALMONELLA TYPHIMURIUM, Strain/Indicator: TA100, Metabolic Activation: NONE inactive; negative | Test System: AMES SALMONELLA TYPHIMURIUM, Strain/Indicator: TA100, Metabolic Activation: RAT, GUT-FLORA EXTRACT inactive; negative | Test System: AMES SALMONELLA TYPHIMURIUM, Strain/Indicator: TA100, Metabolic Activation: RAT, LIVER, S-9, AROCLOR 1254 inactive; negative | Test System: CHINESE HAMSTER V-79, Strain/Indicator: V-79/6-THIOGUANINE (HGPRT), Metabolic Activation: NONE, Method: SUSPENSION/PLATE inactive; negative | Test System: CHINESE HAMSTER V-79, Strain/Indicator: V-79/6-THIOGUANINE (HGPRT), Metabolic Activation: RAT, LIVER, S-9, AROCLOR 1254, Method: SUSPENSION/PLATE inactive; negative | Test System: Mouse lymphoma, Strain/Indicator: L5178Y (TK+/TK-), Metabolic Activation: None, Method: Microwell inactive; negative

CCCCc1ccc(N=Cc2ccc(OC)cc2)cc1
inactive: [1] inactive; negative | [2] inactive; negative | Test System: AMES SALMONELLA TYPHIMURIUM, Strain/Indicator: TA100, Metabolic Activation: RAT, LIVER, S-9, AROCLOR 1254 (30%), Method: PREINCUBATION inactive; negative
active: Test System: AMES SALMONELLA TYPHIMURIUM, Strain/Indicator: TA100, Metabolic Activation: HAMSTER, LIVER, S-9, AROCLOR 1254 (30%), Method: PREINCUBATION active; positive

C[C@]12C=CC(=O)C=C1CC[C@@H]1[C@@H]2[C@@H](O)C[C@@]2(C)[C@H]1CC[C@]2(O)C(=O)CO
active: Test System: MOUSE LYMPHOMA, Strain/Indicator: L5178Y (TK+/TK-), Metabolic Activation: RAT, LIVER, S-9, AROCLOR 1254, Method: SUSPENSION/PLATE active; positive
inactive: [1] inactive; negative | Test System: AMES SALMONELLA TYPHIMURIUM, Strain/Indicator: TA98, Metabolic Activation: S-9, Method: PREINCUBATION inactive; negative | [2] inactive; negative | Test System: AMES SALMONELLA TYPHIMURIUM, Strain/Indicator: TA100, Metabolic Activation: S-9, Method: PREINCUBATION inactive; negative | Test System: MOUSE LYMPHOMA, Strain/Indicator: L5178Y (TK+/TK-), Metabolic Activation: NONE, Method: SUSPENSION/PLATE inactive; negative

C[C@@H]1C[C@]2(O[C@@H]2C)C(=O)O[C@@H]2CCN(C)C/C=C(/COC(=O)[C@]1(C)O)C2=O
inactive: Test System: AMES SALMONELLA TYPHIMURIUM, Strain/Indicator: TA100, Metabolic Activation: HAMSTER, LIVER, S-9, PCB, Method: PREINCUBATION inactive; negative; by authors criteria results are positive
active: Test System: AMES SALMONELLA TYPHIMURIUM, Strain/Indicator: TA100, Metabolic Activation: RAT, LIVER, S-9, PCB, Method: PREINCUBATION active; positive | Test System: UDS RAT HEPATOCYTES, Strain/Indicator: THY INCORP, Metabolic Activation: NONE, Method: AUTORADIOGRAPHY active; positive

Nc1c2ccccc2nc2ccc(I)cc12
active: [3] active; positive
